We go through ten molecules from patent US10004701B2, “Methods and compositions for treating infection” (UNIVERSITY OF ROCHESTER, priority 2012, dated 2018).

Each structure is given as a SMILES string. Structures can show the parent of a compound that is named as a salt. Where two headings read alike, the source gives them in different places.

Assay in all cases: AK assay 384-well format, Prestwick library screening
Assay [1] relates to S. aureus strain USA300-0114. The assay is classed as cell-based, Staphylococcus aureus. The settings on record: 50 μM final drug concentration; for fold induction at 50 µM: Staphylococcus aureus, USA300, 3 h.
Assay [2] concerns A. baumannii strain 98-37-09. The assay is classed as cell-based, Acinetobacter baumannii. The conditions noted are these: 50 μM final drug concentration; for fold induction at 50 µM: Acinetobacter baumannii, 983709, 3 h.
In a further assay the test system is P. aeruginosa. The assay is classed as cell-based, Pseudomonas aeruginosa. The settings on record: 50 μM final drug concentration; for fold induction at 50 µM: Pseudomonas aeruginosa, 3 h.
A further assay relates to E. cloacae. The assay is classed as cell-based, Enterobacter cloacae. The conditions noted are these: 50 μM final drug concentration; for fold induction at 50 µM: Enterobacter cloacae, 3 h.
For another assay, the system named is E. faecium. The assay is classed as cell-based, Enterococcus faecium. The conditions noted are these: 50 μM final drug concentration; for fold induction at 50 µM: Enterococcus faecium, 3 h.
A further assay deals with K. pneumoniae. The assay is classed as cell-based, Klebsiella pneumoniae. The conditions noted are these: 50 μM final drug concentration; for fold induction at 50 µM: Klebsiella pneumoniae, 3 h.
For a further assay, the system named is E. coli. The assay is classed as cell-based, Escherichia coli. The conditions noted are these: 50 μM final drug concentration; for fold induction at 50 µM: Escherichia coli, 3 h.
Setting [3] is: planktonic S. aureus, 384-well, cutoff for positive-scoring molecules 3-fold increase, read-out: AK-based Prestwick Library Screening Results: S. aureus (increase in extracellular AK activity).
Where [4] appears, read: planktonic A. baumannii, 384-well, cutoff for positive-scoring molecules 3-fold increase, read-out: AK-based Prestwick Library Screening Results: A. baumannii (increase in extracellular AK activity).
[5] abbreviates: planktonic P. aeruginosa, 384-well, cutoff for positive-scoring molecules 3-fold increase, read-out: AK-based Prestwick Library Screening Results: P. aeruginosa (increase in extracellular AK activity).
[6] abbreviates: planktonic E. cloacae, 384-well, cutoff for positive-scoring molecules 3-fold increase, read-out: AK-based Prestwick Library Screening Results: E. cloacae (increase in extracellular AK activity).
Where [7] appears, read: planktonic E. faecium, 384-well, cutoff for positive-scoring molecules 3-fold increase, read-out: AK-based Prestwick Library Screening Results: E. faecium (increase in extracellular AK activity).
Where [8] appears, read: planktonic K. pneumoniae, 384-well, cutoff for positive-scoring molecules 3-fold increase, read-out: AK-based Prestwick Library Screening Results: K. pneumoniae (increase in extracellular AK activity).
Setting [9] is: planktonic E. coli, 384-well, cutoff for positive-scoring molecules 3-fold increase, read-out: AK-based Prestwick Library Screening Results: E. coli (increase in extracellular AK activity).
[10] abbreviates: planktonic S. aureus, cutoff for positive-scoring molecules 3-fold increase, read-out: AK-based Prestwick Library Screening Results, S. aureus (increase in extracellular AK activity).
[11] abbreviates: planktonic A. baumannii, cutoff for positive-scoring molecules 3-fold increase, read-out: AK-based Prestwick Library Screening Results, A. baumannii (increase in extracellular AK activity).
The mark [12] stands for this setting: planktonic P. aeruginosa, cutoff for positive-scoring molecules 3-fold increase, read-out: AK-based Prestwick Library Screening Results, P. aeruginosa (increase in extracellular AK activity).
Where [13] appears, read: planktonic E. cloacae, cutoff for positive-scoring molecules 3-fold increase, read-out: AK-based Prestwick Library Screening Results, E. cloacae (increase in extracellular AK activity).
Where [14] appears, read: planktonic E. faecium, cutoff for positive-scoring molecules 3-fold increase, read-out: AK-based Prestwick Library Screening Results, E. faecium (increase in extracellular AK activity).
[15] abbreviates: planktonic K. pneumoniae, cutoff for positive-scoring molecules 3-fold increase, read-out: AK-based Prestwick Library Screening Results, K. pneumoniae (increase in extracellular AK activity).
Setting [16] is: planktonic E. coli, […], read-out: AK-based Prestwick Library Screening Results, E. coli (increase in extracellular AK activity).
[17] abbreviates: planktonic E. coli, cutoff for positive-scoring molecules 3-fold increase, read-out: AK-based Prestwick Library Screening Results, E. coli (increase in extracellular AK activity).
Where [18] appears, read: planktonic, cutoff for positive 3-fold increase.

In the case of `CN(C)CCCN1c2ccccc2Sc2ccc(Cl)cc21` [Chlorpromazine hydrochloride], the fold induction at 50 µM in assay [1] (setting [3]) turned out to be 1.4; in assay [2] (setting [4]), 1.5; in the assay with P. aeruginosa (setting [5]), 1.1; in the assay with E. cloacae (setting [6]), 1.4; in the assay with E. faecium (setting [7]), 1; with K. pneumoniae (setting [8]), 1.1. For the same molecule, the fold induction at 50 µM with E. coli (setting [9]) came to 1.4.
For the molecule `CCCNC(=O)NS(=O)(=O)c1ccc(Cl)cc1` [Chlorpropamide], the fold induction at 50 µM in assay [1] (setting [3]) is 0.4; in assay [2] (setting [4]), 0.3; with P. aeruginosa (setting [5]) it was 0.3; in the assay with E. cloacae (setting [6]), 0.3; in the assay with E. faecium (setting [7]) it was 0.9; in the assay on K. pneumoniae (setting [8]), 0.4. Moreover, the fold induction at 50 µM in the assay on E. coli (setting [9]) stood at 0.4.
In the case of `CN(C)CC/C=C1/c2ccccc2Sc2ccc(Cl)cc21` [Chlorprothixene hydrochloride], the fold induction at 50 µM in assay [1] (setting [10]) was 0.6; in assay [2] (setting [11]), 1.2; with P. aeruginosa (setting [12]) it was 0.9; with E. cloacae (setting [13]), 1; in the assay on E. faecium (setting [14]), 1; in the assay on K. pneumoniae (setting [15]), 0.8. The fold induction at 50 µM with E. coli (setting [16]) is 1.
As to `CN(C)[C@@H]1C(O)=C(C(N)=O)C(=O)[C@@]2(O)C(O)=C3C(=O)c4c(O)ccc(Cl)c4[C@@](C)(O)[C@H]3C[C@@H]12` [Chlortetracycline hydrochloride], the fold induction at 50 µM in assay [1] (setting [3]) stood at 6.8; in assay [2] (setting [4]), 3.9; in the assay on P. aeruginosa (setting [5]) it was 0.7; in the assay on E. cloacae (setting [6]), 1; in the assay with E. faecium (setting [7]), 0.9; in the assay on K. pneumoniae (setting [8]), 0.2. The fold induction at 50 µM with E. coli (setting [9]) was 0.8.
Consider `NS(=O)(=O)c1cc(C2(O)NC(=O)c3ccccc32)ccc1Cl` (stereo not shown) [Chlorthalidone], for which the fold induction at 50 µM worked out at 0.7 in assay [1] (setting [10]); 0.8 in assay [2] (setting [11]); 0.8 with P. aeruginosa (setting [12]); 1 with E. cloacae (setting [13]); 0.9 in the assay with E. faecium (setting [14]); 0.6 with K. pneumoniae (setting [15]). Moreover, the fold induction at 50 µM in the assay on E. coli (setting [17]) was 0.9.
Consider `C=C1CC[C@H](O)C/C1=C/C=C1\CCC[C@]2(C)[C@@H]([C@H](C)CCCC(C)C)CC[C@@H]12` [Cholecalciferol], for which the fold induction at 50 µM worked out at 0.7 in assay [1] (planktonic S. aureus, […], read-out: AK-based Prestwick Library Screening Results, S. aureus (increase in extracellular AK activity)); 0.8 in assay [2] (planktonic A. baumannii, […], read-out: AK-based Prestwick Library Screening Results, A. baumannii (increase in extracellular AK activity)); 0.9 in the assay with P. aeruginosa (planktonic P. aeruginosa, […], read-out: AK-based Prestwick Library Screening Results, P. aeruginosa (increase in extracellular AK activity)); 1 with E. cloacae (planktonic E. cloacae, […], read-out: AK-based Prestwick Library Screening Results, E. cloacae (increase in extracellular AK activity)); 0.9 with E. faecium (planktonic E. faecium, […], read-out: AK-based Prestwick Library Screening Results, E. faecium (increase in extracellular AK activity)); 0.7 with K. pneumoniae (planktonic K. pneumoniae, […], read-out: AK-based Prestwick Library Screening Results, K. pneumoniae (increase in extracellular AK activity)). Further, the fold induction at 50 µM with E. coli (setting [16]) is 1.
On to `O=C1C=CC(=O)c2c1ccc1c2ccc2ccccc21` [Chrysene-1,4-quinone], for which the fold induction at 50 µM in assay [1] (planktonic, […], read-out: AK-based Prestwick Library Screening Results, S. aureus (fold increase in extracellular AK activity)) was 0.1; in assay [2] (planktonic, […], read-out: AK-based Prestwick Library Screening Results, A. baumannii (fold increase in extracellular AK activity)), 0.8; with P. aeruginosa (planktonic, […], read-out: AK-based Prestwick Library Screening Results, P. aeruginosa (fold increase in extracellular AK activity)) it was 1; in the assay with E. cloacae (planktonic, […], read-out: AK-based Prestwick Library Screening Results, E. cloacae (fold increase in extracellular AK activity)) it was 1.4; in the assay on E. faecium (planktonic, […], read-out: AK-based Prestwick Library Screening Results, E. faecium (fold increase in extracellular AK activity)), 0.9; in the assay with K. pneumoniae (planktonic, […], read-out: AK-based Prestwick Library Screening Results, K. pneumoniae (fold increase in extracellular AK activity)), 0.8. Besides, the fold induction at 50 µM with E. coli (planktonic, […], read-out: AK-based Prestwick Library Screening Results, E. coli (fold increase in extracellular AK activity)) is 1.1.
As for `O=c1cc(-c2ccccc2)oc2cc(O)cc(O)c12` [Chrysin], the fold induction at 50 µM in assay [1] (planktonic, cutoff for positive-scoring molecules 3-fold increase, read-out: AK-based Prestwick Library Screening Results, S. aureus (fold increase in extracellular AK activity)) worked out at 0.2; in assay [2] (planktonic, cutoff for positive-scoring molecules 3-fold increase, read-out: AK-based Prestwick Library Screening Results, A. baumannii (fold increase in extracellular AK activity)), 0.2; with P. aeruginosa (planktonic, cutoff for positive-scoring molecules 3-fold increase, read-out: AK-based Prestwick Library Screening Results, P. aeruginosa (fold increase in extracellular AK activity)), 0.1; with E. cloacae (planktonic, cutoff for positive-scoring molecules 3-fold increase, read-out: AK-based Prestwick Library Screening Results, E. cloacae (fold increase in extracellular AK activity)), 0.6; in the assay on E. faecium (planktonic, cutoff for positive-scoring molecules 3-fold increase, read-out: AK-based Prestwick Library Screening Results, E. faecium (fold increase in extracellular AK activity)) it was 0.3; in the assay with K. pneumoniae (planktonic, cutoff for positive-scoring molecules 3-fold increase, read-out: AK-based Prestwick Library Screening Results, K. pneumoniae (fold increase in extracellular AK activity)) it was 0.2. Besides, the fold induction at 50 µM with E. coli (planktonic, cutoff for positive-scoring molecules 3-fold increase, read-out: AK-based Prestwick Library Screening Results, E. coli (fold increase in extracellular AK activity)) came out at 0.2.
On to `Cc1cc(C2CCCCC2)n(O)c(=O)c1.NCCO` [Ciclopirox ethanolamine], for which the “AK-based Prestwick Library Screening Results, S. aureus (fold increase in extracellular AK activity)” value in assay [1] (setting [18]) was 0.7. The “AK-based Prestwick Library Screening Results, A. baumannii (fold increase in extracellular AK activity)” value in assay [2] (setting [18]) is 1.2. In addition, in the assay on P. aeruginosa (setting [18]), the “AK-based Prestwick Library Screening Results, P. aeruginosa (fold increase in extracellular AK activity)” value was 1.0. Further, the “AK-based Prestwick Library Screening Results, E. cloacae (fold increase in extracellular AK activity)” value in the assay on E. cloacae (setting [18]) is 1.2. Further, in the assay on E. faecium (setting [18]), the “AK-based Prestwick Library Screening Results, E. faecium (fold increase in extracellular AK activity)” value was 1.6. Moreover, in the assay with K. pneumoniae (setting [18]), the “AK-based Prestwick Library Screening Results, K. pneumoniae (fold increase in extracellular AK activity)” value came to 0.9. Moreover, the “AK-based Prestwick Library Screening Results, E. coli (fold increase in extracellular AK activity)” value with E. coli (setting [18]) was found to be 1.1.
Take `O=C1CCc2cc(OCCCCc3nnnn3C3CCCCC3)ccc2N1` [Cilostazol]: the fold induction at 50 µM in assay [1] (setting [10]) stood at 0.8; in assay [2] (setting [11]), 0.9; with P. aeruginosa (setting [12]), 0.9; in the assay on E. cloacae (setting [13]), 0.9; in the assay with E. faecium (setting [14]) it was 0.9; with K. pneumoniae (setting [15]) it was 0.7. Moreover, the fold induction at 50 µM in the assay with E. coli (setting [17]) came to 0.9.
